pIC50: −log10 of the molar value. Some results are limits rather than exact numbers.

The target of this assay is T1, Caspase-1 (Homo sapiens, UniProt P29466).
T1 sequence (P29466 whole entry): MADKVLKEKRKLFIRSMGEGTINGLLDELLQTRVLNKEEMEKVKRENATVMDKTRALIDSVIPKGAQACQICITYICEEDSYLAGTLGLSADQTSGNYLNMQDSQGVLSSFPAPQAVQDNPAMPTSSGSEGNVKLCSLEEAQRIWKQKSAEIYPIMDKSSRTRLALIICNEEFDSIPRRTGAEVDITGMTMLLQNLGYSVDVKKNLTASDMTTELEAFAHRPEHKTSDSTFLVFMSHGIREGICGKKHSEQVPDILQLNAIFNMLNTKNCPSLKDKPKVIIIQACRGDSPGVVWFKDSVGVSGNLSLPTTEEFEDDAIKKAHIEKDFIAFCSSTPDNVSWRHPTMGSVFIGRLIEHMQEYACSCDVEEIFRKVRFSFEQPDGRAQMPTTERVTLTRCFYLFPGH
Nature of the assay: Inhibition Assay. The conditions noted are these: pH 7.5; 25 °C. Here is the method:
All assays were performed at 100 µL total volume in triplicate and monitored for 60 minutes at room temperature in a 96-well plate format in HEPES Buffer (100 mM HEPES, 100 mM NaCl, 0.1% CHAPS, 10% sucrose, pH 7.5) on a BioTek Synergy H1 plate reader. Fluorescence was measured with excitation and emission wavelengths of 380 nm and 460 nm, respectively. Caspase-1 was activated with 100 µM DTT for 30 minutes and held constant at 5 nM for all assays. WEHD-AMC was used as a substrate for all assays at 10 µM unless otherwise specified and reactions were monitored immediately upon addition to caspase-1.
One may read the pIC50 as −log10 of the IC50, conventionally taken in molar units. For the molecule `CC1(C)CCC2=C(O1)c1ccccc1C(=O)C2=O` [R115 (Reactive Blue 2)], the negative logarithm of the IC50 (pIC50) was 5.77.
In the case of `C[C@]12C=CC(=O)C=C1CC[C@@H]1C2=CC[C@]2(C)[C@@H](C(=O)CN3CCN(c4cc(N5CCCC5)nc(N5CCCC5)n4)CC3)CC[C@@H]12` [U74389G (B9)], the pIC50 is 6.76.
As for `Cc1cc2c(C(C)C)c(O)c(O)c(C=O)c2c(O)c1-c1c(C)cc2c(C(C)C)c(O)c(O)c(C=O)c2c1O` [Tash 1], the pIC50 was 5.91.
As for `Cc1c(C)c2c(c(C)c1O)CC[C@](C)(CN1CCN(c3cc(N4CCCC4)nc(N4CCCC4)n3)CC1)O2` [U83836E (B8)], the figure is 6.78; as for `CCCCCCCCOC(=O)/C=C/c1ccc(O)c(O)c1` [Octyl (2E)‐3‐(3,4‐dihydroxyphenyl)prop‐2‐enoate (E6)], 6.08.
For the molecule `N#C/C(=C\c1ccc(O)c(O)c1)C(=O)OC/C=C/c1ccccc1`, the pIC50 is 5.65.
For the molecule `CC/C=C\C/C=C\C/C=C\C/C=C\C/C=C\C/C=C\CCC(=O)O` [all-cis-docosa-4,7,10,13,16,19-hexaenoic acid], the negative logarithm of the IC50 (pIC50) was 5.17.
`O=c1c2ccccc2[se]n1-c1ccccc1` [2-Phenyl-benzo[d]isoselenazol-3-one]: the pIC50 is 5.39.
`CC(Cc1ccc(O)c(O)c1)C(C)Cc1ccc(O)c(O)c1` (stereo not drawn) [LOX inhibitor, N/A]: the pIC50 is less than 5.00.
In the case of `CCN(CC)C(=S)SSC(=S)N(CC)CC` [1,1',1'',1'''-[disulfanediylbis(carbonothioylnitrilo)]tetraethane], the pIC50 was 5.74.
In the case of `CCCCCC#CCC#CCC#CCC#CCCCC(=O)O`, the pIC50 was less than 5.00.
Take `CCCCCCCCCCCCCCCC(=O)OC[C@H](O)[C@H]1OC(=O)C(O)=C1O` [Ascorbyl Palmitate]: the pIC50 is 6.22.
Take `CC1=CC(=O)C(C(C)C)=CC1=O` [2-methyl-5-(propan-2-yl)cyclohexa-2,5-diene-1,4-dione (F8)]: the pIC50 was 5.97.

For the origin of these results see BindingDB's records for doi:10.1111/cbdd.12572 (Depaul University, 2015).
